Values of other authors as cited in patent US20240417323A1, “BUBBLE-CONTAINING GYPSUM SLURRY” (KAO CORPORATION, priority 2022, published 2024).

details: 1-octanol/water; measured value if any, otherwise C log P calculated by C LOG P v 4.01

Row | Compound | Log P
1 | CCCC=O [butanal] | 0.88
2 | CCCC(C)CO (centres unmarked) [2-methyl-1-pentanol] | 1.75
3 | CC(C)CC(C)O (centres unmarked) [4-methyl-2-pentanol] | 1.57
4 | OC1CCCC1 [cyclopentanol] | 0.71
5 | CCCCCCCO [Example 1-heptanol, 1-heptanol] | 2.62
6 | CC(C)CCCO [4-methyl-1-pentanol] | 1.75
7 | CCC(C)C(C)O (centres unmarked) [3-methyl-2-pentanol] | 1.57
8 | CCC(C)CCO (centres unmarked) [3-methyl-1-pentanol] | 1.75
9 | CC(C)C(C)O (centres unmarked) [3-methyl-2-butanol] | 1.28
10 | CCCCOC(=O)C(C)O (centres unmarked) [butyl lactate] | 0.8
11 | CCC(C)(O)CC [3-methyl-3-pentanol] | 1.57
12 | CC(C)OC(C)C [diisopropyl ether] | 1.52
13 | COC [dimethyl ether] | 0.1
14 | CCC(CC)CO [2-ethyl-1-butanol] | 1.75
15 | CCCC(C)(C)O [2-methyl-2-pentanol] | 1.57
16 | CCCCOCC [butyl ethyl ether] | 2.03
17 | CCC(O)C(C)C (centres unmarked) [2-methyl-3-pentanol] | 1.57
18 | CCC(C)(C)CO [2,2-dimethyl-1-butanol] | 1.57
19 | CCCCCC=O [hexanal] | 1.78
20 | CC(C)CCCCCO [6-methyl-1-heptanol] | 2.73
